Laboratory results taken from patent US20260250519A1, “Copper Containing Compounds and Compositions for Antimicrobial Paint and Coating” (ARXADA, LLC, priority 2022, published 2026).

Legend:
[1] = Compatibility of copper compounds in flat wall paint, visual assessment of dry film for grits; type: physicochemical; settings: 600 ppm Cu in acrylic flat wall paint; dry film inspected for grits
Experimental: The compatibilities of copper compounds in paint were evaluated via visual assessment of dry film appearance of a flat wall paint (50% PVC, 35% Solid Vol, 45 g/L VOC, Table 1).

[2] = test system: Aspergillus niger (ATCC 6275), Aureobasidium pullulans (ATCC 9348) and Penicillium citrinum (ATCC 9849); test: ASTM resistance to growth of mold on interior coatings in an environmental chamber; type: cell-based; settings: no Cu additive, Quat level 2000 ppm; 4 weeks in chamber
Experimental: Two coatings were brushed onto both faces and all edges of wood panel (allowing 1 day between coats). The resulting coated panels were dried at 23±2° C. and 50±5% relative humidity for 4 days. […] In the environmental chamber, the dried coated panels were hung vertically with the bottom approximately 3 inch above the surface of the inoculated soil and with sufficient spacing to allow free circulation of air and to prevent contact between panels or with wall surfaces. […] The degrees of fungal contamination were assessed using the rating scale in Table 9.

[3] = cited from earlier work

With `O=S(=O)([O-])[O-].[Cu+2]` [CuSO4, copper sulfate, reference compound] as the compound, how does the “Compatibilities of Copper Compounds in Paint” value [1] read?
Its value is “Incompatible (many grits)”.

With `CCCCCCCCCCCCN(C)C` [Lauryl Dimethyl Amine, reference compound] as the compound, how does the “Avg Rating” value [2] read?
The value was 2.7.

With `On1ccccc1=S.On1ccccc1=S.[Cu]` [copper pyrithione] as the compound, how does the solubility [3] read?
Its solubility is 30 ng/mL.
